# Measured values reported in patent US20230285450A1 (priority 2020, published 2023).
# Where a name gives a salt, the structure may show the parent alone.
# Legend:
# [1] = system: bovine cornea (eye mucosa irritation)
# Excerpt: The BCOP assay is a test to evaluate an irritation index for the eye mucosa using opacity and permeability. […] An in vitro irritancy score (IVIS) may be calculated by measuring the opacity and permeability, and the IVIS value may be calculated by [Equation 3].
# IVIS=Mean opacity unit[…] [Equation 3]
# [2] = system: S. aureus; experiment: Sterilization test of nitrogen oxide solutions without plasma; format: cell-based; settings: ionized nitrogen oxide solutions without plasma
# Experimental: (§1) In order to confirm a sterilization effect of nitrogen oxides without plasma, ionized NO, NO2 and NO3 solutions were prepared and then sterilization experiments of S. typhimurium, S. aureus and E. coli were tested.
# [3] = system: E. coli; experiment: as above; format: cell-based; settings: ionized nitrogen oxide solutions without plasma
# Experimental: as §1
# [4] = system: S. typhimurium; experiment: as above; format: cell-based; settings: ionized nitrogen oxide solutions without plasma
# Experimental: as §1
# [5] = system: cells; experiment: Annexin V/PI toxicity evaluation; format: cell-based; settings: spots in upper right end indicate dead cells
# [6] = system: BALB/3T3 clone A31 cells
# [7] = system: SKINETHIC™ human skin model; experiment: Skin irritation test; format: cell-based; settings: relative to negative control group (PBS)
# Experimental: In the skin irritation test, the absorbance was measured for a […]™ human skin model, and a cell viability value (%) was calculated using [Equation 4] to [Equation 6].
# Cell viability (%) of negative control group=[absorbance of negative control group/absorbance of negative control group]×100 [Equation 4]
# Cell viability (%) of positive control group=[absorbance of positive control group/absorbance of negative control group]×100 [Equation 5]
structure (smiles),measurement,setting,value
CCO [ethyl alcohol],corneal opacity (appearance),[1],completely opaque
same,IVIS (in vitro irritancy score),[1]; bovine,39.4 ± 3.6
same,Opacity unit,[1]; bovine,19.9 ± 0.6
same,Transmittance (Absorbance (OD490)),[1]; bovine,1.300 ± 0.203
O=NO [NO2],sterilization effect,[2],no sterilization effect was observed
same,sterilization effect,[3],no sterilization effect was observed
same,sterilization effect,[4],no sterilization effect was observed
"OO [H2O2, hydrogen peroxide]",Annexin V/PI toxicity,[5],many spots were present in the upper right end
CN(C)CCCN1c2ccccc2Sc2ccc(Cl)cc21 [chlorpromazine hydrochloride],phototoxicity conclusion,[6],phototoxicity was shown
same,mean photo effect (MPE),[6]; mouse,0.418
same,photo irritation factor (PIF),[6]; mouse,18.882
CCCCCCCCCCCCOS(=O)(=O)[O-].[Na+] [sodium dodecyl sulfate],cell viability,[7],about 1.1%
O=[N+]([O-])O [NO3],sterilization effect,[2],no sterilization effect was observed
same,sterilization effect,[3],no sterilization effect was observed
same,sterilization effect,[4],no sterilization effect was observed
